In paper PMC6120666 (The EMBO Journal, 2018):

What was measured:
Assay in all cases: Drug affinity chromatography with c-ponatinib and LC-MS/MS (ponatinib interactome)
Assay type in all cases: binding
[1] = molecular target: T1, proteins of U2OS cell lysate (Homo sapiens, UniProt Q12874)
T1 construct: Proteins enriched by c-ponatinib from U2OS cell lysate; endogenous in cells; host or cells: U2OS cell lysate
Description: (§1) Drug affinity chromatography
(§2) U2OS cells were grown until approximately 80% confluent before being pelleted and washed with PBS. Cell pellets were subsequently lysed in buffer A (50 mM Tris pH 7.5, 0.8% v/v NP-40, 5% v/v glycerol, 1.5 mM MgCl2, 100 mM NaCl, 25 mM NaF, 1 mM Na3VO4, 1 mM PMSF, 1mM DTT, 10 μg/mL TLCK, 1 μg/ml Leupeptin, 1 μg/ml Aprotinin, 1 μg/ml soy bean trypsin) and lysates prepared […]
(§3) concentration was determined and lysates stored at -80 °C.
(§4) Briefly, 100 μl of bead slurry (50% in isopropanol) were used for each pulldown experiment. Beads were washed with DMSO (3 × 500 μl), and resuspended in DMSO (50 μl), to which the amine (0.025 μmol) and triethylamine (0.75 μl) were added. The beads were incubated at room temperature for 16 h, and depletion of free amine from the supernatant was determined by LC-MS analysis. Ethanolamine (2.5 μl) was then added to block any unreacted NHS sites, and the beads incubated for a further 16 h. Derivatized beads were then washed with DMSO (3 × 500 μl), buffer A (3 × 1 ml), and incubated with cell lysates (2 mg of protein per pulldown, at 6 […]
(§5) Beads and treated lysates were incubated for 2 h at 4 °C before washing with buffer A (5 ml), Buffer B (50 mM HEPES pH 7.5, 100 mM NaCl, 500 μM EDTA, 2.5 ml), and eluted with formic acid (100 mM, 250 μl). Samples were neutralized with triethylammoniumbicarbonate (TEAB, 1M, 62.5 μl) and stored at -20 °C until preparation for proteomic analysis.
(§6) Samples were reduced with DTT (10 mM final concentration) for 30 min at room temperature, alkylated with iodoacetamide (55 mM final concentration) for 30 min at room temperature, diluted to 300 μl with TEAB, and incubated with trypsin (6 μl, 0.2 mg/ml) overnight at 37 °C. The digests were desalted using SEPAC lite columns (Waters), eluted with 69 % v/v MeCN, 0.1 % v/v FA in H2O (1 ml) and dried in vacuo. Dried peptides were stored at -20 °C before resuspension in 2 % v/v MeCN, 1 % v/v FA in H2O (20 μl) for LC-MS/MS analysis.
(§7) LC-MS/MS data acquisition
(§8) Mass spectrometry data was acquired at the Discovery Proteomics Facility (University of Oxford).
(§9) Digested samples were analyzed by nano-UPLC–MS/MS using a Dionex Ultimate 3000 nano UPLC with EASY spray column (75 μm × 500 mm, 2 μm particle size, Thermo Fisher Scientific) with a 60 min gradient of 0.1 % (v/v) formic acid in 5 % (v/v) DMSO to 0.1 % (v/v) formic acid with 35 % (v/v) acetonitrile in 5 % (v/v) DMSO at a flow rate of approximately 250 nl min−1 (600 bar per 40 °C column temperature). Mass spectrometry data was acquired either with an Orbitrap Q Exactive (Survey scans acquired at a resolution of 70,000 @ 200m/z and the 15 most abundant precursors were selected for HCD fragmentation), or an Orbitrap Q Exactive High Field (HF) instrument (survey scans were […]

[2] = molecular target: T2, proteins of U2OS cell lysate (Homo sapiens, UniProt P62195)
T2 construct: Proteins enriched by c-ponatinib from U2OS cell lysate; endogenous in cells; host or cells: U2OS cell lysate
T2 sequence (P62195 whole entry): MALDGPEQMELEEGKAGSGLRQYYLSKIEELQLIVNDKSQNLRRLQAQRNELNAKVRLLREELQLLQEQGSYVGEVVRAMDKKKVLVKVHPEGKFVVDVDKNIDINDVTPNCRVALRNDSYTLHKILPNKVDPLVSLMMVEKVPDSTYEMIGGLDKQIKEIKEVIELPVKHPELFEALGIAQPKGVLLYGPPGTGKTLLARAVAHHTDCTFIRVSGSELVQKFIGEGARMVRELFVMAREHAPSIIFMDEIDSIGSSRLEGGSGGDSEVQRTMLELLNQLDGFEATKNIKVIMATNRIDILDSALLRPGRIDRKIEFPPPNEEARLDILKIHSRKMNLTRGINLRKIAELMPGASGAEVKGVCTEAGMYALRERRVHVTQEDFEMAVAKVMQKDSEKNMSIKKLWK
Description: as §1, §2, §3, §4, §5, §6, §7, §8, §9

[3] = molecular target: T3, proteins of U2OS cell lysate (Homo sapiens, UniProt P52907)
T3 construct: Proteins enriched by c-ponatinib from U2OS cell lysate; endogenous in cells; host or cells: U2OS cell lysate
Description: as §1, §2, §3, §4, §5, §6, §7, §8, §9

[4] = molecular target: T4, proteins of U2OS cell lysate (Homo sapiens, UniProt O95816)
T4 construct: Proteins enriched by c-ponatinib from U2OS cell lysate; endogenous in cells; host or cells: U2OS cell lysate
T4 sequence (O95816 whole entry): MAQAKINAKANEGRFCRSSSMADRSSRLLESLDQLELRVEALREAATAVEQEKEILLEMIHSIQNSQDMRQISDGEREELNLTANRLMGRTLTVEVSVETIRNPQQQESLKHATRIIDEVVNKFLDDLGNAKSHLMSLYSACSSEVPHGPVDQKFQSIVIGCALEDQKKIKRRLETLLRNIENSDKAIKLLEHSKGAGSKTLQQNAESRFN
Description: as §1, §2, §3, §4, §5, §6, §7, §8, §9

[5] = molecular target: T5, proteins of U2OS cell lysate (Homo sapiens, UniProt P28072)
T5 construct: Proteins enriched by c-ponatinib from U2OS cell lysate; endogenous in cells; host or cells: U2OS cell lysate
T5 sequence (P28072 whole entry): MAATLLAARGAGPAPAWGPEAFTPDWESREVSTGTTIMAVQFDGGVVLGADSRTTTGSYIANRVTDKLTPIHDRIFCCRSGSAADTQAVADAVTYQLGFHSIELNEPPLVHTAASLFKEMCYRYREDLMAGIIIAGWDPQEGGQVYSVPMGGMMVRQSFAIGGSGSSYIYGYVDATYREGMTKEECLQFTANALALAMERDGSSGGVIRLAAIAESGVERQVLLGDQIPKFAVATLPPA
Description: as §1, §2, §3, §4, §5, §6, §7, §8, §9

[6] = molecular target: T6, proteins of U2OS cell lysate (Homo sapiens, UniProt Q13233)
T6 construct: Proteins enriched by c-ponatinib from U2OS cell lysate; endogenous in cells; host or cells: U2OS cell lysate
Description: as §1, §2, §3, §4, §5, §6, §7, §8, §9

[7] = molecular target: T7, proteins of U2OS cell lysate (Homo sapiens, UniProt P14618)
T7 construct: Proteins enriched by c-ponatinib from U2OS cell lysate; endogenous in cells; host or cells: U2OS cell lysate
Description: as §1, §2, §3, §4, §5, §6, §7, §8, §9

[8] = molecular target: T8, proteins of U2OS cell lysate (Homo sapiens, UniProt P48643)
T8 construct: Proteins enriched by c-ponatinib from U2OS cell lysate; endogenous in cells; host or cells: U2OS cell lysate
T8 sequence (P48643 whole entry): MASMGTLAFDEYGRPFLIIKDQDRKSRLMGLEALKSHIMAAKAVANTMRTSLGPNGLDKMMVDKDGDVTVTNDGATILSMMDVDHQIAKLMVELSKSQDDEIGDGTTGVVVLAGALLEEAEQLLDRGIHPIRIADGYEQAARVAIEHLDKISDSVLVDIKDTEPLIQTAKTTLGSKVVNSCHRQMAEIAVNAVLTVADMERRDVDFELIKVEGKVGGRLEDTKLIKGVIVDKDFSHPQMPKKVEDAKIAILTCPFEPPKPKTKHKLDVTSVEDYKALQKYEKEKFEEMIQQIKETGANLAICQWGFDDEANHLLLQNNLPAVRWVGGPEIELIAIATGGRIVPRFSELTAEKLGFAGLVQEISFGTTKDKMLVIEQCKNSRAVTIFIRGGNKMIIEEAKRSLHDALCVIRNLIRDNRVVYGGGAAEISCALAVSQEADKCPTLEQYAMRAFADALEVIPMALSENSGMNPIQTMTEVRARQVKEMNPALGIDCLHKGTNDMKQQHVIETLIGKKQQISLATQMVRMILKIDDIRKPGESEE
Description: as §1, §2, §3, §4, §5, §6, §7, §8, §9

[9] = molecular target: T9, proteins of U2OS cell lysate (Homo sapiens, UniProt Q13435)
T9 construct: Proteins enriched by c-ponatinib from U2OS cell lysate; endogenous in cells; host or cells: U2OS cell lysate
T9 sequence (Q13435 whole entry): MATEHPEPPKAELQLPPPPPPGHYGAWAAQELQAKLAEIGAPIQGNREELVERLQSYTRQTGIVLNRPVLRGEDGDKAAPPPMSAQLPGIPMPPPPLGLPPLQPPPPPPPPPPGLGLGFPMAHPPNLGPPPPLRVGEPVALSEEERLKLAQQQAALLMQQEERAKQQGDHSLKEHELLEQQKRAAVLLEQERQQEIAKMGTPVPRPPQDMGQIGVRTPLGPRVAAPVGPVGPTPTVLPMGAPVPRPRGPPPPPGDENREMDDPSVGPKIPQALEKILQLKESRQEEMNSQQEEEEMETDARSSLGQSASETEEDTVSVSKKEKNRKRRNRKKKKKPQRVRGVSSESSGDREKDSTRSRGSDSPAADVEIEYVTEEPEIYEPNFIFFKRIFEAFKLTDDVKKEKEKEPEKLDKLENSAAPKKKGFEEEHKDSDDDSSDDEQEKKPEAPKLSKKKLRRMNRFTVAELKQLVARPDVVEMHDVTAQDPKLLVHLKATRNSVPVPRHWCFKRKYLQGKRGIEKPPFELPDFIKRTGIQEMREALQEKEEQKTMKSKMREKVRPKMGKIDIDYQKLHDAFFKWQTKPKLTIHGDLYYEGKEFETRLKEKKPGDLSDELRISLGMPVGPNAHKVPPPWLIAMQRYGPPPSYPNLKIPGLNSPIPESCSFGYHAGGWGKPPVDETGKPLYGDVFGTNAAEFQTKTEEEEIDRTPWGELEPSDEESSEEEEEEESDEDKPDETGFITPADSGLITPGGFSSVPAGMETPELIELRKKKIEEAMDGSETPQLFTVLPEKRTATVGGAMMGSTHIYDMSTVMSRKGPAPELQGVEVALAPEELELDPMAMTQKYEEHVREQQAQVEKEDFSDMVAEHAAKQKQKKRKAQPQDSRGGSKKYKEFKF
Description: as §1, §2, §3, §4, §5, §6, §7, §8, §9

[10] = molecular target: T10, proteins of U2OS cell lysate (Homo sapiens, UniProt P04049)
T10 construct: Proteins enriched by c-ponatinib from U2OS cell lysate; endogenous in cells; host or cells: U2OS cell lysate
Description: as §1, §2, §3, §4, §5, §6, §7, §8, §9

[11] = molecular target: T11, proteins of U2OS cell lysate (Homo sapiens, UniProt P39656)
T11 construct: Proteins enriched by c-ponatinib from U2OS cell lysate; endogenous in cells; host or cells: U2OS cell lysate
T11 sequence (P39656 43-456): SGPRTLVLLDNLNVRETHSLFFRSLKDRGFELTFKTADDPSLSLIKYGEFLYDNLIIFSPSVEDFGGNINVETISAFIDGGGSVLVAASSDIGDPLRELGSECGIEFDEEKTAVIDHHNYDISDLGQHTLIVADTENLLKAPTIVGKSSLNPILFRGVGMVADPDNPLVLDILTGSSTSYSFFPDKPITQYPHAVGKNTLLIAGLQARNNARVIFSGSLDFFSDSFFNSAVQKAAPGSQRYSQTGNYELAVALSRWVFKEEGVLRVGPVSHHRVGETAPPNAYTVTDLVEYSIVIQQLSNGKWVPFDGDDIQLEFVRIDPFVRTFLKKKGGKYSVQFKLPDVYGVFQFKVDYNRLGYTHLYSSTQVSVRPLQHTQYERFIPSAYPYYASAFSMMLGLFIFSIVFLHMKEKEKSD
Description: as §1, §2, §3, §4, §5, §6, §7, §8, §9

[12] = molecular target: T12, proteins of U2OS cell lysate (Homo sapiens, UniProt Q7RTV0)
T12 construct: Proteins enriched by c-ponatinib from U2OS cell lysate; endogenous in cells; host or cells: U2OS cell lysate
T12 sequence (Q7RTV0 whole entry): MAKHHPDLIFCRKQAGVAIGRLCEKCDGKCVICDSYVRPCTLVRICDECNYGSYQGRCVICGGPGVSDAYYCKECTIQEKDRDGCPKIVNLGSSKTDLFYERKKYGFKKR
Description: as §1, §2, §3, §4, §5, §6, §7, §8, §9

[13] = molecular target: T13, proteins of U2OS cell lysate (Homo sapiens, UniProt P40227)
T13 construct: Proteins enriched by c-ponatinib from U2OS cell lysate; endogenous in cells; host or cells: U2OS cell lysate
T13 sequence (P40227 whole entry): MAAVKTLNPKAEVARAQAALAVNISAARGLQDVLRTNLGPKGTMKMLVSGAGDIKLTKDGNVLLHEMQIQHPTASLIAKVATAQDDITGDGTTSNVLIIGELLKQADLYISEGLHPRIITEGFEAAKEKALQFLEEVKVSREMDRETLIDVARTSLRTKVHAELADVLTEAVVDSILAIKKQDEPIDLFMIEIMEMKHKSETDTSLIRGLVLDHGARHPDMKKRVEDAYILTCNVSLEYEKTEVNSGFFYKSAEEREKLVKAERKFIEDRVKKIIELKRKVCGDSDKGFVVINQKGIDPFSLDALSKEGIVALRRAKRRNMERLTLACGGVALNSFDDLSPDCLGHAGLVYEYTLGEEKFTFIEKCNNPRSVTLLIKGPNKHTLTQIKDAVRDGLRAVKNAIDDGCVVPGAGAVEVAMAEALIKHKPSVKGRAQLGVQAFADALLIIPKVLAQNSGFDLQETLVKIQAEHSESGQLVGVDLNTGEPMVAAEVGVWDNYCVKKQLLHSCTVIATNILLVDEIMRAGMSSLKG
Description: as §1, §2, §3, §4, §5, §6, §7, §8, §9

[14] = molecular target: T14, proteins of U2OS cell lysate (Homo sapiens, UniProt Q9Y230)
T14 construct: Proteins enriched by c-ponatinib from U2OS cell lysate; endogenous in cells; host or cells: U2OS cell lysate
T14 sequence (Q9Y230 whole entry): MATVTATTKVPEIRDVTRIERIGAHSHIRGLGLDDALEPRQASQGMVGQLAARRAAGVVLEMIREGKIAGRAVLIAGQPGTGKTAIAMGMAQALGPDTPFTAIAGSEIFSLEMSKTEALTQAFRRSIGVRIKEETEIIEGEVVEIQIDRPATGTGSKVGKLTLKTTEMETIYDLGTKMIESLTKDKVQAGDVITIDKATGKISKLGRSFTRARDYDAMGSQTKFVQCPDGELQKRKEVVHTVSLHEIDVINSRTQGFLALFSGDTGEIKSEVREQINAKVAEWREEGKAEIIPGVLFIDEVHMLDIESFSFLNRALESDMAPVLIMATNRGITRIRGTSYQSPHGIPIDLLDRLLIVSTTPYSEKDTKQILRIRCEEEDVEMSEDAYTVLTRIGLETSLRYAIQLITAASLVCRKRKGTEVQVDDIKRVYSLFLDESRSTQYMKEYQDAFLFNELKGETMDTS
Description: as §1, §2, §3, §4, §5, §6, §7, §8, §9

[15] = molecular target: T15, proteins of U2OS cell lysate (Homo sapiens, UniProt P12270)
T15 construct: Proteins enriched by c-ponatinib from U2OS cell lysate; endogenous in cells; host or cells: U2OS cell lysate
Description: as §1, §2, §3, §4, §5, §6, §7, §8, §9

[16] = molecular target: T16, proteins of U2OS cell lysate (Homo sapiens, UniProt P25786)
T16 construct: Proteins enriched by c-ponatinib from U2OS cell lysate; endogenous in cells; host or cells: U2OS cell lysate
T16 sequence (P25786 whole entry): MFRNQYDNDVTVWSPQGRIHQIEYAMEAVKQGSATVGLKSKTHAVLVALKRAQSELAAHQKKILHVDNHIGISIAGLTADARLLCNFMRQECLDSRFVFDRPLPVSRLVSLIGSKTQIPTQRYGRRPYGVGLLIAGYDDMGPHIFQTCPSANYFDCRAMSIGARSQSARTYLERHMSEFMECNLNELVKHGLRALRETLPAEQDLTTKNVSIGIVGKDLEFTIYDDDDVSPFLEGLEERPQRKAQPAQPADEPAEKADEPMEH
Description: as §1, §2, §3, §4, §5, §6, §7, §8, §9

[17] = molecular target: T17, proteins of U2OS cell lysate (Homo sapiens, UniProt O43175)
T17 construct: Proteins enriched by c-ponatinib from U2OS cell lysate; endogenous in cells; host or cells: U2OS cell lysate
Description: as §1, §2, §3, §4, §5, §6, §7, §8, §9

[18] = molecular target: T18, proteins of U2OS cell lysate (Homo sapiens, UniProt Q13347)
T18 construct: Proteins enriched by c-ponatinib from U2OS cell lysate; endogenous in cells; host or cells: U2OS cell lysate
T18 sequence (Q13347 whole entry): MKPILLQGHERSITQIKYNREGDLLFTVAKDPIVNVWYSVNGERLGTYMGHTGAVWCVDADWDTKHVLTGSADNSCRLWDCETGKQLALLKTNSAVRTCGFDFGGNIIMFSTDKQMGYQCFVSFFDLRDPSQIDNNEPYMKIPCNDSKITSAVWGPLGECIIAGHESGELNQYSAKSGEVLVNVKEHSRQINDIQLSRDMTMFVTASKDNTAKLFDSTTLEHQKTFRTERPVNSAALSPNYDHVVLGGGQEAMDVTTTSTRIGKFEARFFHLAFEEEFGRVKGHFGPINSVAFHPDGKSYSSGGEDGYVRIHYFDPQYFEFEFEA
Description: as §1, §2, §3, §4, §5, §6, §7, §8, §9

[19] = molecular target: T19, proteins of U2OS cell lysate (Homo sapiens, UniProt P06733)
T19 construct: Proteins enriched by c-ponatinib from U2OS cell lysate; endogenous in cells; host or cells: U2OS cell lysate
Description: as §1, §2, §3, §4, §5, §6, §7, §8, §9

T1 sequence (Q12874 whole entry): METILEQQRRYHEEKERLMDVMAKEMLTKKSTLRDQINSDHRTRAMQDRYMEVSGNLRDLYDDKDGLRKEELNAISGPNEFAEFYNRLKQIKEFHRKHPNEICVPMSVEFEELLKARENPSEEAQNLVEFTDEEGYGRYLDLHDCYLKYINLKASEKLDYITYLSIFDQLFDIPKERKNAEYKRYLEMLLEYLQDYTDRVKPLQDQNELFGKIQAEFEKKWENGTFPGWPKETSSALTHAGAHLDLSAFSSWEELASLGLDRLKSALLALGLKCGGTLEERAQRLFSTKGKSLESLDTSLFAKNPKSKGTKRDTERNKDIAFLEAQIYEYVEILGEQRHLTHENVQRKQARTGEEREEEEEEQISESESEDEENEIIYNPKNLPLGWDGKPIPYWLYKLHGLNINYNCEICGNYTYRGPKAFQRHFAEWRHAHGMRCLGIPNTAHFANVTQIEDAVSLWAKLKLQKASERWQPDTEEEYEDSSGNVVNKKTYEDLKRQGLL

For `Cc1ccc(C(=O)Nc2ccc(CN3CCN(C)CC3)c(C(F)(F)F)c2)cc1C#Cc1cnc2cccnn12` [PON], the “Average LFQ PON_WT” value ([1]; SF3A3, Splicing factor 3A subunit 3) was 21.5172, the “Average LFQ PON_WT” value ([2]; PSMC5, 26S protease regulatory subunit 8) was 22.2388 and the “Average LFQ PON_WT” value ([3]; CAPZA1, F-actin-capping protein subunit alpha-1) was 21.8548. For the same molecule, the “Average LFQ PON_WT” value ([4]; BAG2, BAG family molecular chaperone regulator 2) was 22.6462, the “Average LFQ PON_WT” value ([5]; PSMB6, Proteasome subunit beta type-6) was 22.7359 and the “Average LFQ PON_WT” value ([6]; MAP3K1, Mitogen-activated protein kinase kinase kinase 1) was 22.7864. For the same molecule, the “Average LFQ PON_WT” value ([7]; PKM, Pyruvate kinase PKM) was 21.567, the “Average LFQ PON_WT” value ([8]; CCT5, T-complex protein 1 subunit epsilon) was 22.2687 and the “Average LFQ PON_WT” value ([9]; SF3B2, Splicing factor 3B subunit 2) was 22.8369. The “Average LFQ PON_WT” value ([10]; RAF1, RAF proto-oncogene serine/threonine-protein kinase) was 21.5684, the “Average LFQ PON_WT” value ([11]; DDOST, Dolichyl-diphosphooligosaccharide--protein glycosyltransferase 48 kDa subunit) was 22.9075 and the “Average LFQ PON_WT” value ([12]; PHF5A, PHD finger-like domain-containing protein 5A) was 21.937. For the same molecule, the “Average LFQ PON_WT” value ([13]; CCT6A, T-complex protein 1 subunit zeta) was 22.8673, the “Average LFQ PON_WT” value ([14]; RUVBL2, RuvB-like 2) was 22.2484 and the “Average LFQ PON_WT” value ([15]; TPR, Nucleoprotein TPR) was 22.5124. The “Average LFQ PON_WT” value ([16]; PSMA1, Proteasome subunit alpha type-1) was 22.7928, the “Average LFQ PON_WT” value ([17]; PHGDH, D-3-phosphoglycerate dehydrogenase) was 23.086 and the “Average LFQ PON_WT” value ([18]; EIF3I, Eukaryotic translation initiation factor 3 subunit I) was 22.8398. For the same molecule, the “Average LFQ PON_WT” value ([19]; ENO1, Alpha-enolase) was 21.9992.

For `Cc1ccc(C(=O)Nc2ccc(CN3CCN(CCCN)CC3)c(C(F)(F)F)c2)cc1C#Cc1cnc2cccnn12` [c-ponatinib, reference compound], the “Average LFQ intensity” value ([1]; captured protein SF3A3, Rank 228) was 21.5172, the “Average LFQ intensity” value ([2]; captured protein PSMC5, Rank 176) was 22.2388 and the “Average LFQ intensity” value ([3]; captured protein CAPZA1, Rank 200) was 21.8548. The “Average LFQ intensity” value ([4]; captured protein BAG2, Rank 152) was 22.6462, the “Average LFQ intensity” value ([5]; captured protein PSMB6, Rank 145) was 22.7359 and the “Average LFQ intensity” value ([6]; captured protein MAP3K1, Rank 139) was 22.7864. For the same molecule, the “Average LFQ intensity” value ([7]; captured protein PKM, Rank 224) was 21.567, the “Average LFQ intensity” value ([8]; captured protein CCT5, Rank 171) was 22.2687 and the “Average LFQ intensity” value ([9]; captured protein SF3B2, Rank 136) was 22.8369. The “Average LFQ intensity” value ([10]; captured protein RAF1, Rank 223) was 21.5685, the “Average LFQ intensity” value ([11]; captured protein DDOST, Rank 129) was 22.9075 and the “Average LFQ intensity” value ([12]; captured protein PHF5A, Rank 194) was 21.937. For the same molecule, the “Average LFQ intensity” value ([13]; captured protein CCT6A, Rank 133) was 22.8673, the “Average LFQ intensity” value ([14]; captured protein RUVBL2, Rank 173) was 22.2484 and the “Average LFQ intensity” value ([15]; captured protein TPR, Rank 156) was 22.5124. For the same molecule, the “Average LFQ intensity” value ([16]; captured protein PSMA1, Rank 138) was 22.7928, the “Average LFQ intensity” value ([17]; captured protein PHGDH, Rank 119) was 23.086 and the “Average LFQ intensity” value ([18]; captured protein EIF3I, Rank 135) was 22.8398. For the same molecule, the “Average LFQ intensity” value ([19]; captured protein ENO1, Rank 190) was 21.9992.
